From ChEMBL document CHEMBL5042515, “Design and Evaluation of a Novel Peptide-Drug Conjugate Covalently Targeting SARS-CoV-2 Papain-like Protease” (J Med Chem, 2022)
The source made the active and inactive calls. No cut-off for these calls is given here. *1 amine or outer side, *2 acyl side, *3 side chain or, on linkers, in order; H or OH if unused. Where a SMILES comes first, the peptide text is derived from it. Bridges are numbered along the chain shown (N, C = ends). [ ]: non-standard residue; d: D form. The star is where a group is joined. Met(S-mXyl) = C[S+](CC[C@H](N[*:1])C(=O)[*:2])Cc1cccc(C[*:3])c1; X1 = Cc1ccc(N*)cc1C(=O)NC(C)c1cccc2ccccc12

Test system: Severe acute respiratory syndrome coronavirus 2
Assay: Covalent binding affinity to SARS-CoV-2 mutant PLpro Cys111S at 10 uM incubated for 2 hrs by SDS gel analysis

Cc1ccc(NC(=O)CC[C@H](N)C(=O)N[C@H]2CC[S+](C)Cc3cccc(c3)CSC[C@@H](C(=O)O)NC(=O)CNC(=O)[C@H](CCCNC(=N)N)NC(=O)[C@H](CC(C)C)NC2=O)cc1C(=O)NC(C)c1cccc2ccccc12 (stereo partly specified) (H-E(X1)[Met(S-mXyl)]LRGC-OH; thioether 2-6)
Activity: inactive
